Experimental data: paper PMC12018053 (Biochemistry and Biophysics Reports, 2025)
In brackets after ≈: the same amount, converted by molar mass.

Experiments:
[1] = physchem; settings: sodium phosphate buffer, 24 °C, pH 7.4, aqueous buffer, kinetic from dmso stock
[2] = molecular target: T1, Human sEH (Homo sapiens, UniProt P34913); experiment: sEH fluorescent-based inhibition assay; type: biochemical
T1 sequence (P34913 1-555): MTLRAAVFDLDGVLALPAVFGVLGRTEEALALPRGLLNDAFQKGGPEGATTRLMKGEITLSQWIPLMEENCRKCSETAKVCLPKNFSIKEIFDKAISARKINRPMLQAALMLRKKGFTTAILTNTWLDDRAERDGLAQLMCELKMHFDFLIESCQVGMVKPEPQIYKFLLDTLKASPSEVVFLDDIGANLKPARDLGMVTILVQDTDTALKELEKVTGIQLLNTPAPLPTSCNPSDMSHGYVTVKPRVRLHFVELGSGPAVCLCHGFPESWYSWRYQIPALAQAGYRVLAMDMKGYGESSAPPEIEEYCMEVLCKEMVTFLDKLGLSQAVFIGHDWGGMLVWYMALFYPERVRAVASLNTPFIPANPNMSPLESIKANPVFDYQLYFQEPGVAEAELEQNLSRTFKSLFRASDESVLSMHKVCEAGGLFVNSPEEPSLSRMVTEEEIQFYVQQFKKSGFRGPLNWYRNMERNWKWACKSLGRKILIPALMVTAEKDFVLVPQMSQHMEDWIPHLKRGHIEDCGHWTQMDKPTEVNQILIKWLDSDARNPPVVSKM

[3] = molecular target: T2, Mouse sEH (Mus musculus, UniProt P34914); experiment: sEH fluorescent-based inhibition assay; type: biochemical
T2 sequence (P34914 1-554): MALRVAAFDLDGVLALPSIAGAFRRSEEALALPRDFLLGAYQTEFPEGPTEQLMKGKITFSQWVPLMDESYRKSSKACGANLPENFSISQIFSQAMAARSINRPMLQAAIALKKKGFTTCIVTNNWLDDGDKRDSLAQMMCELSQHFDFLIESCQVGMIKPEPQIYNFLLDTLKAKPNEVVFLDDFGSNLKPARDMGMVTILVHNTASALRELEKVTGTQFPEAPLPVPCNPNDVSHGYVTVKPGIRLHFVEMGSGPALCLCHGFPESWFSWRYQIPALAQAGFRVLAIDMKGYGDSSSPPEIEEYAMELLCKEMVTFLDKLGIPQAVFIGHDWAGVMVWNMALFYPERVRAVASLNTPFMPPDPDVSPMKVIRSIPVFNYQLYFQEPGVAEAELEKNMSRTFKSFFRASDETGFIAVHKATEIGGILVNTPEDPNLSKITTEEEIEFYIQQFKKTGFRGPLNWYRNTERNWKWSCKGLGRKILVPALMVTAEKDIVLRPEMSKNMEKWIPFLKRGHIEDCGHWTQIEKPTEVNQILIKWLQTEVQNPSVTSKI

[4] = molecular target: T3, Rat sEH (Rattus norvegicus, UniProt P80299); experiment: sEH fluorescent-based inhibition assay; type: biochemical
T3 sequence (P80299 1-554): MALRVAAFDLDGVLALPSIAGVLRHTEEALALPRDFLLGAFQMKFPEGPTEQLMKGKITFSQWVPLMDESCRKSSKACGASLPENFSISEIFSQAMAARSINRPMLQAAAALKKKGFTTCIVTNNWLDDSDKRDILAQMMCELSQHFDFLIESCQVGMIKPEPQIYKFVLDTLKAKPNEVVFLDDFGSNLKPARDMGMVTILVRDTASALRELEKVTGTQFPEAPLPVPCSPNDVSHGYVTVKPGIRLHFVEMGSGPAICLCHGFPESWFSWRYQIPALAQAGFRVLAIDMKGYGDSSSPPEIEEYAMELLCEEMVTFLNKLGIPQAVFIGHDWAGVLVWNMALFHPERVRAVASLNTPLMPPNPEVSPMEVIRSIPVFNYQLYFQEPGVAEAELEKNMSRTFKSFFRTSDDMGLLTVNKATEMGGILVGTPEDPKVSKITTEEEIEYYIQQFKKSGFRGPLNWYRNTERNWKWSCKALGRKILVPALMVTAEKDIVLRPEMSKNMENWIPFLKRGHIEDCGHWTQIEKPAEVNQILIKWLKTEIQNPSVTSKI

[5] = test system: rats; settings: 1 mg/kg; cited from earlier work
[6] = test system: temporomandibular joint (TMJ); settings: local administration; cited from earlier work

Compound | solubility [1] [µM] | IC50 [2] [nM] | IC50 [3] [nM] | IC50 [4] [nM] | Effect on NTG-induced trigeminal hyperalgesia [5] | Effect on formalin-induced hyperalgesia within the temporomandibular joint [6]
O=C(Nc1ccc(-c2cccc3cnccc23)cc1)C1CCN(S(=O)(=O)c2ccccc2Cl)CC1 [Compound 4d, 1-((2-chlorophenyl)sulfonyl)-N-(4-(isoquinolin-5-yl)phenyl)piperidine-4-carboxamide] | 40 (≈ 20.3 µg/mL) | 0.4 | 30.6 | 2.2 | – | –
O=C(Nc1ccc(-c2cncc3ccccc23)cc1)C1CCN(S(=O)(=O)c2ccccc2Cl)CC1 [Compound 4c, 1-((2-chlorophenyl)sulfonyl)-N-(4-(isoquinolin-4-yl)phenyl)piperidine-4-carboxamide] | 49.2 (≈ 24.9 µg/mL) | 0.4 | 22.3 | 0.8 | – | –
O=C(Nc1ccc(-c2cc3ccccc3cn2)cc1)C1CCN(S(=O)(=O)c2ccccc2Cl)CC1 [Compound 4b, 1-((2-chlorophenyl)sulfonyl)-N-(4-(isoquinolin-3-yl)phenyl)piperidine-4-carboxamide] | 51.6 (≈ 26.1 µg/mL) | 18.7 | 236 | 11.5 | – | –
O=C(Nc1ccc(-c2ccccn2)cc1)C1CCN(S(=O)(=O)c2ccccc2Cl)CC1 [Compound 4h, 1-((2-chlorophenyl)sulfonyl)-N-(4-(pyridin-2-yl)phenyl)piperidine-4-carboxamide] | 66.7 (≈ 30.4 µg/mL) | – | 188 | 1.9 | – | –
NC(=O)c1cccc(-c2cc(OC(=O)NC3CCCCC3)ccc2O)c1 [URB937] | – | – | – | – | reversed NTG-induced trigeminal hyperalgesia | –
CCC(=O)N1CCC(NC(=O)Nc2ccc(OC(F)(F)F)cc2)CC1 [TPPU] | – | – | – | – | – | prevented formalin-induced hyperalgesia
O=C(Nc1ccc(-c2ccc3cnccc3c2)cc1)C1CCN(S(=O)(=O)c2ccccc2Cl)CC1 [Compound 4e, 1-((2-chlorophenyl)sulfonyl)-N-(4-(isoquinolin-6-yl)phenyl)piperidine-4-carboxamide] | 55.8 (≈ 28.2 µg/mL) | 1.8 | 51.3 | 0.5 | – | –
O=C(Nc1ccc(-c2cccnc2)cc1)C1CCN(S(=O)(=O)c2ccccc2Cl)CC1 [Compound 4i, 1-((2-chlorophenyl)sulfonyl)-N-(4-(pyridin-3-yl)phenyl)piperidine-4-carboxamide] | 51.1 (≈ 23.3 µg/mL) | 1.3 | 127 | 2.8 | – | –
O=C(Nc1ccc(-c2cccc3ccncc23)cc1)C1CCN(S(=O)(=O)c2ccccc2Cl)CC1 [Compound 4g, 1-((2-chlorophenyl)sulfonyl)-N-(4-(isoquinolin-8-yl)phenyl)piperidine-4-carboxamide] | 65.6 (≈ 33.2 µg/mL) | 1.4 | 69 | 4.7 | – | –
O=C(Nc1ccc(-c2nccc3ccccc23)cc1)C1CCN(S(=O)(=O)c2ccccc2Cl)CC1 [Compound 4a, 1-((2-chlorophenyl)sulfonyl)-N-(4-(isoquinolin-1-yl)phenyl)piperidine-4-carboxamide] | 56 (≈ 28.3 µg/mL) | 3.7 | 283 | 3.7 | – | –

Now from value to compound, other results behind:

solubility [1] [µM] | IC50 [2] [nM] | IC50 [3] [nM] | IC50 [4] [nM] | Compound | Effect on NTG-induced trigeminal hyperalgesia [5] | Effect on formalin-induced hyperalgesia within the temporomandibular joint [6]
43.4 (≈ 20.4 µg/mL) | 4.7 | 226 | 1.6 | Cc1cccc(-c2ccc(NC(=O)C3CCN(S(=O)(=O)c4ccccc4Cl)CC3)cc2)n1 [Compound 4k, 1-((2-chlorophenyl)sulfonyl)-N-(4-(6-methylpyridin-2-yl)phenyl)piperidine-4-carboxamide] | – | –
36.4 (≈ 17.1 µg/mL) | 5.1 | 499 | 10.3 | Cc1ccnc(-c2ccc(NC(=O)C3CCN(S(=O)(=O)c4ccccc4Cl)CC3)cc2)c1 [Compound 4l, 1-((2-chlorophenyl)sulfonyl)-N-(4-(4-methylpyridin-2-yl)phenyl)piperidine-4-carboxamide] | – | –
49.4 (≈ 23.2 µg/mL) | 2.6 | 175 | 1.1 | Cc1cncc(-c2ccc(NC(=O)C3CCN(S(=O)(=O)c4ccccc4Cl)CC3)cc2)c1 [Compound 4m, 1-((2-chlorophenyl)sulfonyl)-N-(4-(5-methylpyridin-3-yl)phenyl)piperidine-4-carboxamide] | – | –
50.9 (≈ 23.2 µg/mL) | 1.8 | 133 | 3.1 | O=C(Nc1ccc(-c2ccncc2)cc1)C1CCN(S(=O)(=O)c2ccccc2Cl)CC1 [Compound 4j, 1-((2-chlorophenyl)sulfonyl)-N-(4-(pyridin-4-yl)phenyl)piperidine-4-carboxamide] | – | –
53 (≈ 24.9 µg/mL) | 5.8 | 259 | 3.6 | Cc1cc(-c2ccc(NC(=O)C3CCN(S(=O)(=O)c4ccccc4Cl)CC3)cc2)ccn1 [Compound 4n, 1-((2-chlorophenyl)sulfonyl)-N-(4-(2-methylpyridin-4-yl)phenyl)piperidine-4-carboxamide] | – | –
